Measurements from US20100168097A1, “Non-Nucleoside Reverse Transcriptase Inhibitors” (priority 2005, published 2010).

Assays:
HIV-1 RT enzyme = HIV-1 RT enzyme (Human immunodeficiency virus type 1 group M subtype B, UniProt P04585); assay: Assay for inhibition of HIV reverse transcriptase (RNA-dependent DNA polymerase, SPA); type: biochemical; conditions: HIV-1 RT enzyme 1 nM, 1 hour at 37° C.
Description: (§1) 100 μL reaction mixtures were initiated with a combination of primer-template substrate (10 nM final concentration) and dNTPs (0.6 μM dNTPs, 0.75 μM [^3H]-dGTP). The heterodimeric nucleic acid substrate was generated by annealing the DNA primer pD500 (described in Shaw-Reid et al., J. Biol. Chem., 278: 2777-2780; obtained from Integrated DNA Technologies) to t500, a 500 nucleotide RNA template created by in vitro transcription (see Shaw-Reid et al., J. Biol. Chem., 278: 2777-2780). After 1 hour incubation at 37° C., reactions were quenched by 10 μL streptavidin scintillation proximity assay beads (10 mg/mL, from Amersham Biosciences) in 0.5 M EDTA, pH 8. Microtiter plates were incubated an additional 10 minutes at 37° C. prior to quantification via Topcount (Packard).

[1] = target: T1, mutant HIV reverse transcriptase, Y181C mutation (Human immunodeficiency virus type 1 group M subtype B, UniProt P04585, Y768C); assay: Analogous RT inhibition assay, Y181C mutant; type: biochemical; conditions: Y181C mutant RT; tested up to 20 micromolar; read-out: IC50, Y181C mutant assay
T1 construct: made in house
Description: as §1
(§2) Analogous assays were conducted substituting mutant HIV strains to determine the […] inhibition of compounds of the present invention against mutant HIV reverse transcriptase. In one strain the reverse transcriptase has the Y181C mutation and in the other strain the reverse transcriptase has the K103N mutation. The mutations were generated with the […] site-directed mutagenesis kit (Stratagene).

[2] = target: T2, mutant HIV reverse transcriptase, K103N mutation (Human immunodeficiency virus type 1 group M subtype B, UniProt P04585, K690N); assay: Analogous RT inhibition assay, K103N mutant; type: biochemical
T2 construct: made in house
Description: as §1, §2

[3] = system: acute HIV infection of T-lymphoid cells; assay: Assay for inhibition of HIV replication (spread assay); type: cell-based; conditions: Human immunodeficiency virus 1; inhibition of HIV replication in T-lymphoid cells
Description: An assay for the inhibition of acute HIV infection of T-lymphoid cells (alternatively referred to herein as the “spread assay”) was conducted in accordance with Vacca, J. P. et al., Proc. Natl. Acad. Sci. USA 1994, 91: 4096. […] The compounds of Examples 2-4 and 22 were not tested.

| SMILES | IC50 (HIV-1 RT enzyme) [µM] | IC50 [1] [nM] | IC50 [2] [µM] | IC95 [3] [µM] |
| --- | --- | --- | --- | --- |
| O=S(=O)(c1ccccc1)c1c(-c2ncc(-c3ccncc3)s2)[nH]c2ccc(Cl)cc12 [Example 2, 5-chloro-3-(phenylsulfonyl)-2-(5-pyridin-4-yl-1,3-thiazol-2-yl)-1H-indole] | 4 |  |  |  |
| Cc1cnc(-c2[nH]c3ccc(Cl)cc3c2S(=O)(=O)CC2CCC2)[nH]1 [Example 34, 5-Chloro-3-[(cyclobutylmethyl)sulfonyl]-2-(5-methyl-1H-imidazol-2-yl)-1H-indole] |  | < 1000 | > 3 | < 1 |
| Cc1cnc(-c2[nH]c3ccc(Cl)cc3c2S(=O)(=O)C2CCCC2)[nH]1 [Example 35, 5-chloro-3-[(cyclopentyl)sulfonyl]-2-(5-methyl-1H-imidazol-2-yl)-1H-indole] |  | < 1000 | < 1 | < 1 |
| CCC(CC)S(=O)(=O)c1c(-c2ncc(C)[nH]2)[nH]c2ccc(Cl)cc12 [Example 37, 5-chloro-3-[(pent-3-yl)sulfonyl]-2-(5-methyl-1H-imidazol-2-yl)-1H-indole] |  | < 1000 | > 10 | < 1 |
